Assay results reported in PMC11167047 (Cell Death Discovery, 2024).

Columns and labels:
Assay in all cases: kinome screen (33PanQinase)
Assay type in all cases: biochemical
GSK3β = target: T1, GSK3β (Homo sapiens, UniProt P49841)
T1 construct: purchased Reaction Biology Europe GmbH (formerly ProQinase)
Procedure: (§1) The Kinome Screening was performed by Reaction Biology Europe GmbH (http://reactionbiology.com; Freiburg i. Br., Germany).

CDK6/CycD1 = target: T2, CDK6/CycD1 (Homo sapiens, UniProt Q00534)
T2 construct: purchased Reaction Biology Europe GmbH (formerly ProQinase)
T2 sequence (Q00534 whole entry): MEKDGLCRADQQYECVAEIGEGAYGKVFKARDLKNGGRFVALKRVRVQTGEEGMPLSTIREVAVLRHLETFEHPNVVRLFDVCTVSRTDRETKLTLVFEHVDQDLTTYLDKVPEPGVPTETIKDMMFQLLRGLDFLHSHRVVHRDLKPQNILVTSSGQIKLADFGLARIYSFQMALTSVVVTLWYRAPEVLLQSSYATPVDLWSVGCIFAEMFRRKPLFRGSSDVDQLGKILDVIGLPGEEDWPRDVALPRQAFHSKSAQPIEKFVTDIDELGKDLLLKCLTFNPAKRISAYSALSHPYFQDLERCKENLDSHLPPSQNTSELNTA
T2 sequence (P24385 whole entry partner): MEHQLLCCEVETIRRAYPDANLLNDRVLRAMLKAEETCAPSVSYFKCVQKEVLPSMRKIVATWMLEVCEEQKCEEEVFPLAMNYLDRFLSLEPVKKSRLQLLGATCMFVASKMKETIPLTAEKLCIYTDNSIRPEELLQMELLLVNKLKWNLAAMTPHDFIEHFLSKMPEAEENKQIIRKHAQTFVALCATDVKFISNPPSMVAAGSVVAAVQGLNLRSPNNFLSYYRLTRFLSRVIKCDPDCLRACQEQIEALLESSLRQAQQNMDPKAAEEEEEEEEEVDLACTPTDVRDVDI
Procedure: as §1

TAOK3 = target: T3, TAOK3 (Homo sapiens, UniProt Q9H2K8)
T3 construct: purchased Reaction Biology Europe GmbH (formerly ProQinase)
T3 sequence (Q9H2K8 1-898): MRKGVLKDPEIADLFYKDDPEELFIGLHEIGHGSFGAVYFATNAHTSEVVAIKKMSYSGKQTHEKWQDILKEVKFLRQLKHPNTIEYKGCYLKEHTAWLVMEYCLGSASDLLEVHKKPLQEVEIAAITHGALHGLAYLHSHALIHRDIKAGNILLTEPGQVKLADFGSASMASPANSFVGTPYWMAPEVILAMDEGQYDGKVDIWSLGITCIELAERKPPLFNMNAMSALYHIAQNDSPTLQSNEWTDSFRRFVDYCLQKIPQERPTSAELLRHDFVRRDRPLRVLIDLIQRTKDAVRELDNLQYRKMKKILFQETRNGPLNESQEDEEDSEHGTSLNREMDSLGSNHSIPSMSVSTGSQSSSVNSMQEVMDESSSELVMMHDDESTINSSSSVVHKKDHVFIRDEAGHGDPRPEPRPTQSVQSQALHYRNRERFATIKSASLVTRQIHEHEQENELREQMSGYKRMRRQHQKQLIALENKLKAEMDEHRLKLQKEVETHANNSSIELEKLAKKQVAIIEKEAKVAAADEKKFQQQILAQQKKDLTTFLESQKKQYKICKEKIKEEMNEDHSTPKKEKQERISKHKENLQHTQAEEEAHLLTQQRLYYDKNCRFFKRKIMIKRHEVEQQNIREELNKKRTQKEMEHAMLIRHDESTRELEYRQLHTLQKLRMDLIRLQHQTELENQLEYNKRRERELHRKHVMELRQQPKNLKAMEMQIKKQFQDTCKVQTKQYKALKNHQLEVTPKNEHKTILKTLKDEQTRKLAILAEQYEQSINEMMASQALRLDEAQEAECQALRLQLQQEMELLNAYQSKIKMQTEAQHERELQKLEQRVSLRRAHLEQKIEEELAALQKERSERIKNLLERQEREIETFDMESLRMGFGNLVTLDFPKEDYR
Procedure: as §1

p38β = target: T4, p38β (Homo sapiens, UniProt Q15759)
T4 construct: purchased Reaction Biology Europe GmbH (formerly ProQinase)
T4 sequence (Q15759 whole entry): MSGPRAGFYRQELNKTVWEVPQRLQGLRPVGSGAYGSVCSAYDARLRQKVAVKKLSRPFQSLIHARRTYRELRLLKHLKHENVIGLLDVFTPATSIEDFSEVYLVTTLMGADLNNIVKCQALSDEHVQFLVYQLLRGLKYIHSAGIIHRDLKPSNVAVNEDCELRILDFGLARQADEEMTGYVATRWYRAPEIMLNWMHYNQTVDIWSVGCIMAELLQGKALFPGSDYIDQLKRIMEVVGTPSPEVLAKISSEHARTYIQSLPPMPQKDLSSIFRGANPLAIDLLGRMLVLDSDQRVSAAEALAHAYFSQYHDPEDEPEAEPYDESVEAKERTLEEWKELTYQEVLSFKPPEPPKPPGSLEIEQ
Procedure: as §1

HRI = target: T5, HRI (Homo sapiens, UniProt Q9BQI3)
T5 construct: purchased Reaction Biology Europe GmbH (formerly ProQinase)
T5 sequence (Q9BQI3 whole entry): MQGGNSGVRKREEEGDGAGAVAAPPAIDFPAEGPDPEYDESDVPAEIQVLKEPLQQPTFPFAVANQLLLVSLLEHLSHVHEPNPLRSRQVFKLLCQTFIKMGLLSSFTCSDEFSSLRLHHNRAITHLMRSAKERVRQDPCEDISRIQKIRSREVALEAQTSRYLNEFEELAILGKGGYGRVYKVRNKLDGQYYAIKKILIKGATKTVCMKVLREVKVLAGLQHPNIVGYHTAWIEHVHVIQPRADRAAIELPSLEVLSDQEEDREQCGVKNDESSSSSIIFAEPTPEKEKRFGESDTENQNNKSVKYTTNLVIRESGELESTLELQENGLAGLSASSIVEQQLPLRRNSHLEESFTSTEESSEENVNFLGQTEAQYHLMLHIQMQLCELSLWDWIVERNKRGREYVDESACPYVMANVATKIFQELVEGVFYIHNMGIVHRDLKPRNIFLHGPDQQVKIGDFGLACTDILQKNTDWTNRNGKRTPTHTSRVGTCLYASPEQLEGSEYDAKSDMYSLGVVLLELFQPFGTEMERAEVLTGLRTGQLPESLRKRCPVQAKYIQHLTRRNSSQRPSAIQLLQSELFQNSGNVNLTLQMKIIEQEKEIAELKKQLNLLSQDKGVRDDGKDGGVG
Procedure: as §1

CK1ε = target: T6, CK1ε (Homo sapiens, UniProt P49674)
T6 construct: purchased Reaction Biology Europe GmbH (formerly ProQinase)
T6 sequence (P49674 whole entry): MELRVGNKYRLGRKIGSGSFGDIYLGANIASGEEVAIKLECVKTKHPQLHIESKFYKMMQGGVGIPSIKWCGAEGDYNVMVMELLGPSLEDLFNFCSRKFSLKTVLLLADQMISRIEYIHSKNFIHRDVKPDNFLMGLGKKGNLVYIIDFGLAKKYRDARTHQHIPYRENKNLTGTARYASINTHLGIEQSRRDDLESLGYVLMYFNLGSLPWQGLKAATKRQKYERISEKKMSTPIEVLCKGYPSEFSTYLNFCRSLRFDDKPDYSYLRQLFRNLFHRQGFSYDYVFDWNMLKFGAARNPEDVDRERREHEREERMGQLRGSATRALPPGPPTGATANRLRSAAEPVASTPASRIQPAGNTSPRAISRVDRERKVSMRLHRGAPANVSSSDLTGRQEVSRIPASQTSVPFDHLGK
Procedure: as §1

STK17A = target: T7, STK17A (Homo sapiens, UniProt Q9UEE5)
T7 construct: purchased Reaction Biology Europe GmbH (formerly ProQinase)
T7 sequence (Q9UEE5 1-414): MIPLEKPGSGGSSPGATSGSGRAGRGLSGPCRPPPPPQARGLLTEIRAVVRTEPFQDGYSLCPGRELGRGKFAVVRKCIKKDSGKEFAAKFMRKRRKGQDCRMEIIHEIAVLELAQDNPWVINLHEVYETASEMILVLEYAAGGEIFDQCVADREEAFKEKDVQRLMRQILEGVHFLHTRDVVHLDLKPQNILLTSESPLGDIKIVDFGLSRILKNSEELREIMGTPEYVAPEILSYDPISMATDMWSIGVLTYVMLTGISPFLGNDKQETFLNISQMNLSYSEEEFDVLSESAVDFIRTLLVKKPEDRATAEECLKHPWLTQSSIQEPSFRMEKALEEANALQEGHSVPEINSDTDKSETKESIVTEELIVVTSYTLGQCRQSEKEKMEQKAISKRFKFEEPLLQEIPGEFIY
Procedure: as §1

CAMK2D = target: T8, CAMK2D (Homo sapiens, UniProt Q13557)
T8 construct: purchased Reaction Biology Europe GmbH (formerly ProQinase)
T8 sequence (Q13557 whole entry): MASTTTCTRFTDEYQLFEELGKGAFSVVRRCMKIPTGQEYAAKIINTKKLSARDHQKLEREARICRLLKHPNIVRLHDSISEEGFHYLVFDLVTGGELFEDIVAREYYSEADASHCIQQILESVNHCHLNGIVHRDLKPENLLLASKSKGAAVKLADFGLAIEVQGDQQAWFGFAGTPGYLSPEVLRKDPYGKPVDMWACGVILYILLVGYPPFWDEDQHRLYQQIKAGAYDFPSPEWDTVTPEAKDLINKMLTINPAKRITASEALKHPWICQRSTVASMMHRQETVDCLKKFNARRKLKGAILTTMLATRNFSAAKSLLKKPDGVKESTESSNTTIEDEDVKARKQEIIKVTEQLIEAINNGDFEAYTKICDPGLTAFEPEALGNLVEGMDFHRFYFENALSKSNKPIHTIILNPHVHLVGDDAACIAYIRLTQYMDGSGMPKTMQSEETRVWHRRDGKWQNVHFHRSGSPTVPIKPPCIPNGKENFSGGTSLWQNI
Procedure: as §1

RPS6KA3 = target: T9, RPS6KA3 (Homo sapiens, UniProt P51812)
T9 construct: purchased Reaction Biology Europe GmbH (formerly ProQinase)
T9 sequence (P51812 whole entry): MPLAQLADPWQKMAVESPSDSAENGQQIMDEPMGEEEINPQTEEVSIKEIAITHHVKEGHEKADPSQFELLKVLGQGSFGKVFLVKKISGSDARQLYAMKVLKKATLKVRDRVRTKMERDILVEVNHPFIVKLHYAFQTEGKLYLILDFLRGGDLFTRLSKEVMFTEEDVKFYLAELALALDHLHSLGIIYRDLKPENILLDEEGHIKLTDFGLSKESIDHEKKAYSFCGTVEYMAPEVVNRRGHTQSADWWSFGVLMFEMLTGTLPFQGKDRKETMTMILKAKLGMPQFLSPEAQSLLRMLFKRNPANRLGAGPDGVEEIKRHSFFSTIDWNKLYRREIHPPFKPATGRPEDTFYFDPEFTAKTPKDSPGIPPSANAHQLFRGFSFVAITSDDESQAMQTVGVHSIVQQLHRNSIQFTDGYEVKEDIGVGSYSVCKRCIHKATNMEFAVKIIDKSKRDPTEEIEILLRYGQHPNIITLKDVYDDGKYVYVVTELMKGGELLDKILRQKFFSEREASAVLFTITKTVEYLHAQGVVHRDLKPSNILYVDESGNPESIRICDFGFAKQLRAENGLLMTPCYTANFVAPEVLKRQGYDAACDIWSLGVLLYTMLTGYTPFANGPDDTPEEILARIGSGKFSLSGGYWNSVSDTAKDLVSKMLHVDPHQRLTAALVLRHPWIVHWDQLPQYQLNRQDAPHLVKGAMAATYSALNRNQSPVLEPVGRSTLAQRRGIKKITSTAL
Procedure: as §1

AXL = target: T10, AXL (Homo sapiens, UniProt P30530)
T10 construct: purchased Reaction Biology Europe GmbH (formerly ProQinase)
T10 sequence (P30530 26-894): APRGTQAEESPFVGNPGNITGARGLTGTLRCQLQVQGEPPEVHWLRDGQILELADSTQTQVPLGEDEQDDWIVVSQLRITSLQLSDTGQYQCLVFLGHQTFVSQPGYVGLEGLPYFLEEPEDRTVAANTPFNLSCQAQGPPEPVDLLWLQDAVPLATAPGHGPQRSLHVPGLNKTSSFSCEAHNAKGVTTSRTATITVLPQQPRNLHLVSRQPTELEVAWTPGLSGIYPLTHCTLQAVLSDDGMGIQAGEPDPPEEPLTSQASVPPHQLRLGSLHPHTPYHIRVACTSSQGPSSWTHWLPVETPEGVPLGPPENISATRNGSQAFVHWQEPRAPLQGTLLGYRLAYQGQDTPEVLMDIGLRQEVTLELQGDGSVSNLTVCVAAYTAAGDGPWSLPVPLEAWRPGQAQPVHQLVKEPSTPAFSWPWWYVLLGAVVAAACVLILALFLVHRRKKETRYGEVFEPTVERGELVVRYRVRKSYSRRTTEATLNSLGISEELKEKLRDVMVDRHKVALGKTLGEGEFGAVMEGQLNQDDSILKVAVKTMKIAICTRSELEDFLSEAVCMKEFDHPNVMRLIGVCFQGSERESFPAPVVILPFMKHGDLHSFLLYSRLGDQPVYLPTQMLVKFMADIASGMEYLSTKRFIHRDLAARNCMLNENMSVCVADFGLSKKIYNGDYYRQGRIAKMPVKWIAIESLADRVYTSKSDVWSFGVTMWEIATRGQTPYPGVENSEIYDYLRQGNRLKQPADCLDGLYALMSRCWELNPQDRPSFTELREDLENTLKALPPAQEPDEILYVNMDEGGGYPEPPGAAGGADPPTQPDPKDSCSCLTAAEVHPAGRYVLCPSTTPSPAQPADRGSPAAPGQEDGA
Procedure: as §1

RPS6KA2 = target: T11, RPS6KA2 (Homo sapiens, UniProt Q15349)
T11 construct: purchased Reaction Biology Europe GmbH (formerly ProQinase)
T11 sequence (Q15349 whole entry): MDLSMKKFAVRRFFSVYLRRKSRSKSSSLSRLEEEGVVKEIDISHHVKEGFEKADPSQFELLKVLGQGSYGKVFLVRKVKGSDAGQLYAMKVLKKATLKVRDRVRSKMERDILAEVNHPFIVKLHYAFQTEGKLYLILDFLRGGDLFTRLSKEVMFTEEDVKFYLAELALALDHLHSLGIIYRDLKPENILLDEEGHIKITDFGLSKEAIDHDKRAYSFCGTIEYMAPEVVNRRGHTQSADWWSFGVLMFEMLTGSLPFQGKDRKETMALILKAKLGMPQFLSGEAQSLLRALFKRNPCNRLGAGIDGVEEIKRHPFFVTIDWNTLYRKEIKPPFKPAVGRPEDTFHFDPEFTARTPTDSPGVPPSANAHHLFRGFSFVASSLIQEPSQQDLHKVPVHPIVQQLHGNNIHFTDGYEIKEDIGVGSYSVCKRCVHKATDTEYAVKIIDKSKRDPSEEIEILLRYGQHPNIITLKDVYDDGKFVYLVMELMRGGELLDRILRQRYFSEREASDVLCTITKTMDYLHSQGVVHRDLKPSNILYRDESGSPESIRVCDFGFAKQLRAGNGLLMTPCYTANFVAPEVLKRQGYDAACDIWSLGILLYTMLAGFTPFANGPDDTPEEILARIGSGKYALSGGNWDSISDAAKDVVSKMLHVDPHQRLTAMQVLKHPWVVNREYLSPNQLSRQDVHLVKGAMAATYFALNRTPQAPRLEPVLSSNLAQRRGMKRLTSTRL
Procedure: as §1

T1 sequence (P49841 whole entry): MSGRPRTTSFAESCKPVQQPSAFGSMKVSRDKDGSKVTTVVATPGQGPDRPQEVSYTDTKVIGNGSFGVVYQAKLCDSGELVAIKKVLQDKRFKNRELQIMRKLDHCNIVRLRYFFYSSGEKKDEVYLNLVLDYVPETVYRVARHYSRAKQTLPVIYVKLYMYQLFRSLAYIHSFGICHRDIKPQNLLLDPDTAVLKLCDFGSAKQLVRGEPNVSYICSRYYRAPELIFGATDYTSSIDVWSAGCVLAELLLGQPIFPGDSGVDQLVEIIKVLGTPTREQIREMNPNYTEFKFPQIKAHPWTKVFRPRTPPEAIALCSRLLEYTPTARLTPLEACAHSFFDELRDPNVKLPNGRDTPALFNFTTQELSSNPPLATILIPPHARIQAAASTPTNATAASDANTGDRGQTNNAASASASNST

Structure (SMILES)	residual kinase activity (GSK3β; 0.3 µM)	residual kinase activity (CDK6/CycD1; 0.3 µM)	residual kinase activity (TAOK3; 0.3 µM)	residual kinase activity (p38β; 0.3 µM)	residual kinase activity (HRI; 0.3 µM)	residual kinase activity (CK1ε; 0.3 µM)	residual kinase activity (STK17A; 0.3 µM)	residual kinase activity (CAMK2D; 0.3 µM)	residual kinase activity (RPS6KA3; 0.3 µM)	residual kinase activity (AXL; 0.3 µM)	residual kinase activity (RPS6KA2; 0.3 µM)	also measured
COc1ccnc2[nH]cc(-c3cc(N)nc(N)c3)c12 [meriolin 16]	66 % of control	51 % of control	91 % of control	88 % of control	90 % of control	41 % of control	23 % of control	64 % of control	39 % of control	75 % of control	34 % of control	residual kinase activity (GSK3β; 0.03 µM): 80 % of control; residual kinase activity (CDK6/CycD1; 0.03 µM): 93 % of control; residual kinase activity (TAOK3; 0.03 µM): 111 % of control; residual kinase activity (p38β; 0.03 µM): 79 % of control; residual kinase activity (HRI; 0.03 µM): 98 % of control; residual kinase activity (CK1ε; 0.03 µM): 112 % of control; residual kinase activity (STK17A; 0.03 µM): 83 % of control; residual kinase activity (CAMK2D; 0.03 µM): 99 % of control; residual kinase activity (RPS6KA3; 0.03 µM): 85 % of control; residual kinase activity (AXL; 0.03 µM): 101 % of control; residual kinase activity (RPS6KA2; 0.03 µM): 87 % of control
c1ccc(CNc2cc(-c3c[nH]c4ncccc34)ccn2)cc1 [meriolin 36]	18 % of control	2 % of control	44 % of control	77 % of control	93 % of control	86 % of control	23 % of control	16 % of control	7 % of control	75 % of control	6 % of control	residual kinase activity (GSK3β; 3 µM): 2 % of control; residual kinase activity (CDK6/CycD1; 3 µM): 1 % of control; residual kinase activity (TAOK3; 3 µM): 6 % of control; residual kinase activity (p38β; 3 µM): 84 % of control; residual kinase activity (HRI; 3 µM): 71 % of control; residual kinase activity (CK1ε; 3 µM): 23 % of control; residual kinase activity (STK17A; 3 µM): 4 % of control; residual kinase activity (CAMK2D; 3 µM): 1 % of control; residual kinase activity (RPS6KA3; 3 µM): 1 % of control; residual kinase activity (AXL; 3 µM): 28 % of control; residual kinase activity (RPS6KA2; 3 µM): 0 % of control
